Target: T1, cloned human dopamine D3 receptors (Homo sapiens, UniProt P35462)
T1 construct: expressed in transfected cells; membrane homogenate
Assay: [N-Methyl-3H]Spiroperidol binding to cloned human dopamine D3 receptors (Protocol 1)
Settings: read-out: D3K1
From the text: [N-Methyl-^3H]Spiroperidol Binding to Cloned Human Dopamine D3 Receptors
This assay measures the in vitro activity of compounds on cloned human dopamine (D3) receptors and predicts the direct dopamine-blocking properties of putative neuropsychiatric agents at human dopamine D3 receptors.
The D3 gene was isolated from a human striatal cDNA library (Stratagene). The gene was sequenced and sub-cloned into the expression vector RC/RSV (Invitrogen). CHO (Chinese Hamster Ovary) cells were stably transfected with 10 μg of the D3/RSV plasmid using the DOTAP method from Boehringer Mannheim and 72 clones that were G418 resistant were isolated. Using mRNA and binding displacement data a single high expressing clone was identified. This clone was then grown in large batches for the purpose of developing a 96 well format assay.
• 1. One plate (10 cm) with approximately 2-3 million D3 cells per plate is incubated with 1 ml of Trypsin-EDTA at room temperature for ˜2 min or until cells have lifted off plates. Four ml of Ham's F12+10% Fetal Bovine Serum+1% Penicillin/Streptomycin+G418 (400 μg/ml) medium are added to resuspend cells and 1 ml of this is added to each large plate (15 cm) containing 19 ml of the-same medium as mentioned above. • 2. The 5 large plates are incubated at 37° C.+5% CO2 for ˜3 days or until the cells are confluent. • 3. After these plates are confluent, they are split into 10 large plates. Medium is aspirated off, 2 ml of Trypsin-EDTA are added to each plate and plates are incubated at RT for 2 min or until cells have lifted off the plate. Eight ml of the F12 medium (same medium as #1 above) are added to each plate (10 ml total) to resuspend the cells and 5 ml are transferred to the 2 new plates containing 15 ml of the F12 media. • 4. The 10 large plates are incubated at 37° C.+5% CO2 for ˜2 days or until the cells are confluent. • 5. The 10 large plates are split into 60 large plates (using Trypsin-EDTA as #3 except 4 ml of F12 medium are added to resuspend cells and 1 ml is aliquoted to 6 new plates containing 19 ml of F12 medium each). • 6. Plates are incubated at […]+5% CO2 for ˜3 days or until cell are confluent. • 7. The 60 large plates are then split into 60 roller bottles (100-150 million cells/bottle). Medium is aspirated off, 2 ml of Trypsin-EDTA are added to each plate and incubated at RT for ˜2 minutes or until cells have lifted off plates. Eight ml of F12 medium are added to each plate to resuspend cells and the entire 10 ml are added to 1 roller bottle containing 90 ml of the F12 medium. • 8. The 60 roller bottles are immediately placed on their sides and transferred to the roller bottle incubator. They are incubated at 37° C.+5% CO2 for ˜3-5 days. Cells are spun at 30-40% motor speed in the Forma incubator. • 9. Medium is poured off and cells are washed 2× in PBS. • 10. Cells are then scraped off in 20 ml of PBS and the bottles are rinsed again with 5 ml of PBS to remove any remaining cells. Cells are stored on ice before membrane preparation. • 11. The yield for 60 D3 roller bottles has varied from ˜260-500 mg. • Note: All tissue culture reagents are from Gibco-BRL. C. Membrane Preparation
The cells are harvested into 250 ml centrifuge tubes with 100 volumes of cold phosphate buffered saline (PBS) and spun down (1200×G for 10 min at 4° C.). The medium is removed and 100 ml PBS are added to each centrifuge tube, cells are resuspend and spun down again. The PBS is removed and the final pellet is homogenized in an appropriate volume of 10% DMSO with a polytron on ice at a medium setting.
1. 0.5M Tris Buffer, pH 7.7 • a) 44.4 g Tris HCl 26.5 g Tris Base q.s. to 1 Liter (0.5 M Tris buffer, pH 7.7 at 37° C.) • b) make a 1:10 dilution in distilled H2O (0.05 M. Tris buffer, pH 7.7) 2. Tris Buffer Containing Physiological Salts • a) Stock buffer • NaCl 7.014 g • KCl 0.372 g • CaCl2 0.222 g • MgCl2 0.204 g • q.s. To 100 ml with 0.5 M. Tris Buffer • b) Dilute 1:10 in distilled H2O […]

T1 sequence (P35462 whole entry): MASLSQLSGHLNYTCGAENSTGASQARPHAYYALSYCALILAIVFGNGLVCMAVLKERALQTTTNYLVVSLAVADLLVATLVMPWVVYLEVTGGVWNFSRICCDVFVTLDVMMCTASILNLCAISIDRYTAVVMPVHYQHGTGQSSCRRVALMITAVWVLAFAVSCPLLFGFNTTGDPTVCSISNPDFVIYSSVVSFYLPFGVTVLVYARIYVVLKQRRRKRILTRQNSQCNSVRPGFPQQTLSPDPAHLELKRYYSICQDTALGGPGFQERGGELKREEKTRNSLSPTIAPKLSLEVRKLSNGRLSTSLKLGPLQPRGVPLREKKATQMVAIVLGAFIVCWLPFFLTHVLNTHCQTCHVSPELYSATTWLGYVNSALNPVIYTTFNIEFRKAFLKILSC

| Ki | SMILES |
| --- | --- |
| 0.0421 µM | CC(C)C(=O)NCCCCN1CCN(c2csc3cc(C(F)(F)F)ccc23)CC1 [compound 811700] |
| 0.00577 µM | O=C(NCCCCN1CCN(c2csc3cc(C(F)(F)F)ccc23)CC1)c1cccs1 [compound 811708] |
| 0.035 µM | O=C(NCCCCN1CCN(c2c(Cl)sc3cc(F)ccc23)CC1)C(F)(F)F [compound 814854] |
| 0.0054 µM | CCOc1ccc(C(=O)NCCCCN2CCN(c3c(Cl)sc4cc(F)ccc34)CC2)cc1 [compound 815052] |
| 0.0058 µM | O=C(NCCCCN1CCN(c2c(Cl)sc3cc(F)ccc23)CC1)c1ccc(F)cc1F [compound 815053] |
| 0.0077 µM | O=C(NCCCCN1CCN(c2c(Cl)sc3cc(F)ccc23)CC1)c1c(F)cc(F)cc1F [compound 815054] |
| 0.0035 µM | O=C(NCCCCN1CCN(c2c(Cl)sc3cc(F)ccc23)CC1)c1ccc2c(c1)OCO2 [compound 815055] |
| 0.0123 µM | O=C(NCCCCN1CCN(c2c(Cl)sc3cc(F)ccc23)CC1)c1sc2ccccc2c1Cl [compound 815057] |
| 0.0043 µM | O=C(NCCCCN1CCN(c2c(Cl)sc3cc(F)ccc23)CC1)c1cccs1 [compound 815058] |
| 0.0138 µM | O=C(NCCCCN1CCN(c2c(Cl)sc3cc(F)ccc23)CC1)c1ccc(-c2ccccc2)cc1 [compound 815059] |
| 0.0062 µM | O=C(NCCCCN1CCN(c2c(Cl)sc3cc(F)ccc23)CC1)c1ccc(Cl)cc1 [compound 815060] |

Same assay, conditions: the 13th table, unit inferred; read-out: D3Ki

| SMILES | Ki |
| --- | --- |
| O=C(NCCCCN1CCCN(c2csc3cc(F)ccc23)CC1)c1cc(Cl)cc(Cl)c1 [S981848] | 0.0083 µM |
| O=C(NCCCCN1CCCN(c2csc3cc(F)ccc23)CC1)c1cc(F)cc(F)c1 [S981849] | 0.00503 µM |
| O=C(/C=C/c1ccccc1)NCCCCN1CCCN(c2csc3cc(F)ccc23)CC1 [S981850] | 0.000489 µM |
| O=C(NCCCCN1CCCN(c2csc3cc(F)ccc23)CC1)c1cc([N+](=O)[O-])cc([N+](=O)[O-])c1 [S982535] | 0.0053 µM |
| O=C(NCCCCN1CCCN(c2csc3cc(F)ccc23)CC1)c1cccc2c1-c1ccccc1C2=O [S982536] | 0.0014 µM |
| O=C(NCCCCN1CCCN(c2csc3cc(F)ccc23)CC1)c1ccc2c(c1)C(=O)c1ccccc1-2 [S982538] | 0.00051 µM |
| O=C(NCCCCN1CCCN(c2csc3cc(F)ccc23)CC1)c1ccc2c(c1)S(=O)(=O)c1ccccc1C2=O [S982539] | 0.0008 µM |
| O=C(NCCCCCN1CCCN(c2csc3cc(F)ccc23)CC1)c1c2ccccc2cc2ccccc12 [S982542] | 0.057 µM |
| COc1cc(OC)cc(C(=O)NCCCCCN2CCCN(c3csc4cc(F)ccc34)CC2)c1 [S984487] | 0.0318 µM |
| O=C(NCCCCCN1CCCN(c2csc3cc(F)ccc23)CC1)c1cnc(-c2cccnc2)s1 [S984497] | 0.0493 µM |
| O=C(NCCCCCN1CCCN(c2csc3cc(F)ccc23)CC1)c1csnn1 [S984498] | 0.0395 µM |
| O=C(NCCCCCN1CCCN(c2csc3cc(F)ccc23)CC1)c1sccc1-n1cccc1 [S984499] | 0.0285 µM |
| O=C(NCCCCCN1CCCN(c2csc3cc(F)ccc23)CC1)c1ccc(-c2ccccn2)s1 [S984501] | 0.0158 µM |
| O=C(NCCCCCN1CCCN(c2csc3cc(F)ccc23)CC1)c1cc2sccc2s1 [S984502] | 0.00641 µM |
| Cc1nn(C)c2sc(C(=O)NCCCCCN3CCCN(c4csc5cc(F)ccc45)CC3)cc12 [S984503] | 0.0102 µM |
| COc1ccc2[nH]c(C(=O)NCCCCCN3CCCN(c4csc5cc(F)ccc45)CC3)cc2c1 [S984505] | 0.013 µM |
| O=C(NCCCCN1CCCN(c2csc3cc(C(F)(F)F)ccc23)CC1)c1cc2ccccc2o1 [S984513] | 0.019 µM |
| O=C(NCCCCN1CCC(c2noc3ccsc23)CC1)c1ccc2ccccc2c1 [compound 81514] | 0.191 µM |
| COc1cc(OC)cc(C(=O)NCCCCN2CCCN(c3csc4cc(F)ccc34)CC2)c1 [compound 82251] | 0.0109 µM |

Results, then the compound that gave them:

| Ki | SMILES |
| --- | --- |
| 0.00101 µM | COc1ccc(C(=O)NCCCCN2CCCN(c3csc4cc(F)ccc34)CC2)cc1 [S981845] |
| 0.0269 µM | O=C(NCCCCN1CCCN(c2csc3cc(F)ccc23)CC1)c1ccc(F)cc1 [S981846] |
| 0.00272 µM | O=C(NCCCCN1CCCN(c2csc3cc(F)ccc23)CC1)c1ccccc1I [S981851] |
| 0.0409 µM | O=C(Cc1ccc(C(F)(F)F)cc1)NCCCCN1CCCN(c2csc3cc(F)ccc23)CC1 [S982508] |
| 0.0128 µM | O=C(Cc1ccc(Cl)cc1)NCCCCN1CCCN(c2csc3cc(F)ccc23)CC1 [S982509] |
| 0.0059 µM | COc1cccc(CC(=O)NCCCCN2CCCN(c3csc4cc(F)ccc34)CC2)c1 [S982510] |
| 0.012 µM | CS(=O)(=O)c1ccc(CC(=O)NCCCCN2CCCN(c3csc4cc(F)ccc34)CC2)cc1 [S982511] |
| 0.0058 µM | O=C(Cc1ccccc1Br)NCCCCN1CCCN(c2csc3cc(F)ccc23)CC1 [S982512] |
| 0.000132 µM | CC1(c2ccc(C(=O)NCCCCN3CCCN(c4csc5cc(F)ccc45)CC3)cc2)NC(=O)NC1=O (stereo not drawn) [S982513] |
| 0.00059 µM | O=C(Cc1ccccc1F)NCCCCN1CCCN(c2csc3cc(F)ccc23)CC1 [S982514] |
| 0.0012 µM | O=C(NCCCCN1CCCN(c2csc3cc(F)ccc23)CC1)c1cc(Cl)ccc1[N+](=O)[O-] [S982540] |
| 0.0316 µM | O=C(NCCCCCN1CCCN(c2csc3cc(F)ccc23)CC1)c1cccs1 [S984485] |
| 0.0315 µM | O=C(NCCCCCN1CCCN(c2csc3cc(F)ccc23)CC1)c1cccc(Cl)c1 [S984486] |
| 0.0415 µM | O=C(NCCCCCN1CCCN(c2csc3cc(F)ccc23)CC1)c1cccc2ccccc12 [S984489] |
| 0.0155 µM | O=C(NCCCCCN1CCCN(c2csc3cc(F)ccc23)CC1)c1ccc2ccccc2c1 [S984490] |
| 0.054 µM | O=C(NCCCCCN1CCCN(c2csc3cc(F)ccc23)CC1)c1cccc(C(F)(F)F)c1 [S984491] |
| 0.0347 µM | COc1ccccc1C(=O)NCCCCCN1CCCN(c2csc3cc(F)ccc23)CC1 [S984492] |
| 0.0259 µM | O=C(NCCCCCN1CCCN(c2csc3cc(F)ccc23)CC1)c1cccc(F)c1 [S984493] |
| 0.0116 µM | O=C(NCCCCCN1CCCN(c2csc3cc(F)ccc23)CC1)c1cc2ccccc2s1 [S984494] |
| 0.0262 µM | O=C(NCCCCCN1CCCN(c2csc3cc(F)ccc23)CC1)c1cccc2cc[nH]c12 [S984495] |
| 0.00844 µM | CS(=O)(=O)c1sc(C(=O)NCCCCCN2CCCN(c3csc4cc(F)ccc34)CC2)c2c1CCC=C2 [S984496] |
| 0.0171 µM | O=C(NCCCCCN1CCCN(c2csc3cc(F)ccc23)CC1)c1cc2ccccc2[nH]1 [S984504] |
| 0.0334 µM | Cn1c(C(=O)NCCCCCN2CCCN(c3csc4cc(F)ccc34)CC2)cc2ccccc21 [S984506] |
| 0.062 µM | O=C(NCCCCCN1CCCN(c2csc3cc(F)ccc23)CC1)c1c[nH]c2ccccc12 [S984507] |
| 0.0348 µM | O=C(NCCCCCN1CCCN(c2csc3cc(F)ccc23)CC1)c1cccc2[nH]ccc12 [S984508] |
| 0.0119 µM | O=C(NCCCCCN1CCCN(c2csc3cc(F)ccc23)CC1)c1ccc2[nH]ccc2c1 [S984509] |
| 0.0101 µM | O=C(NCCCCCN1CCCN(c2csc3cc(F)ccc23)CC1)c1ccc2cc[nH]c2c1 [S984510] |
| 0.0254 µM | O=C(NCCCCCN1CCCN(c2csc3cc(F)ccc23)CC1)c1n[nH]c2ccccc12 [S984511] |
| 0.0308 µM | O=C(NCCCCN1CCCN(c2csc3cc(F)ccc23)CC1)c1ccc(C(F)(F)F)cc1 [S9818147] |
| 0.0238 µM | O=C(NCCCCCN1CCCN(c2csc3cc(F)ccc23)CC1)c1ccc(OC(F)(F)F)cc1 [S9894488] |

— patent US7550469B2, “Heterocyclic amide derivatives and their use as dopamine D3 receptor ligands” (Aventis Pharmaceuticals Inc., priority 2001, dated 2009)
